Experimental data: the NIST ThermoML archive (doi:10.1021/acs.jced.7b00106)
Values joined by “and” are separate entries in the source; they are usually repeats but may differ in a detail not shown here. Equal entries are not always repeated.

Settings: Fluid (supercritical or subcritical phases), Hot wire method

FC(F)(F)/C=C/Cl [(E)-1-chloro-3,3,3-trifluoroprop-1-ene]
Settings | thermal conductivity
451.44 K, 4091 kPa | 0.03884 W/m/K
451.45 K, 3691 kPa | 0.03 W/m/K
451.45 K, 4479 kPa | 0.04701 W/m/K and 0.04717 W/m/K
451.46 K, 3650 kPa | 0.02974 W/m/K
451.47 K, 3830 kPa | 0.03201 W/m/K
451.47 K, 4579 kPa | 0.04622 W/m/K
451.47 K, 4580 kPa | 0.04624 W/m/K
451.48 K, 3651 kPa | 0.02988 W/m/K
451.48 K, 3831 kPa | 0.03192 W/m/K
451.5 K, 3272 kPa | 0.02692 W/m/K
451.5 K, 3273 kPa | 0.02709 W/m/K
451.5 K, 4908 kPa | 0.04557 W/m/K and 0.04553 W/m/K
451.51 K, 3508 kPa | 0.02853 W/m/K
451.51 K, 4024 kPa | 0.03641 W/m/K
451.51 K, 4025 kPa | 0.03631 W/m/K
451.52 K, 4479 kPa | 0.04791 W/m/K
451.52 K, 5208 kPa | 0.04584 W/m/K and 0.04601 W/m/K
451.53 K, 4479 kPa | 0.04799 W/m/K
451.54 K, 3691 kPa | 0.03 W/m/K and 0.03016 W/m/K
451.54 K, 4580 kPa | 0.04656 W/m/K
451.55 K, 4580 kPa | 0.04665 W/m/K
451.56 K, 3650 kPa | 0.02992 W/m/K
451.57 K, 3650 kPa | 0.02995 W/m/K
451.57 K, 3831 kPa | 0.0321 W/m/K
451.58 K, 3831 kPa | 0.0323 W/m/K
451.59 K, 4908 kPa | 0.04582 W/m/K and 0.04575 W/m/K
451.6 K, 5208 kPa | 0.04598 W/m/K and 0.04588 W/m/K
451.61 K, 3273 kPa | 0.02708 W/m/K
451.61 K, 4734 kPa | 0.046 W/m/K
451.62 K, 3273 kPa | 0.027 W/m/K
451.62 K, 3508 kPa | 0.02859 W/m/K
451.62 K, 3509 kPa | 0.02863 W/m/K
451.62 K, 4579 kPa | 0.04727 W/m/K
451.62 K, 4580 kPa | 0.0472 W/m/K
451.62 K, 4734 kPa | 0.0461 W/m/K
451.64 K, 3691 kPa | 0.03032 W/m/K and 0.03035 W/m/K
451.66 K, 2992 kPa | 0.02577 W/m/K
451.67 K, 2990 kPa | 0.02601 W/m/K
451.67 K, 3650 kPa | 0.02999 W/m/K
451.67 K, 4909 kPa | 0.04592 W/m/K
451.68 K, 4909 kPa | 0.04602 W/m/K
451.68 K, 5207 kPa | 0.04609 W/m/K
451.69 K, 5207 kPa | 0.04582 W/m/K
451.7 K, 4580 kPa | 0.04772 W/m/K
451.7 K, 4734 kPa | 0.04631 W/m/K
451.71 K, 4580 kPa | 0.04774 W/m/K
451.71 K, 4734 kPa | 0.04636 W/m/K
451.72 K, 3272 kPa | 0.02716 W/m/K
451.73 K, 2617 kPa | 0.02492 W/m/K and 0.02475 W/m/K
451.73 K, 3273 kPa | 0.02707 W/m/K
451.74 K, 3509 kPa | 0.02878 W/m/K and 0.02877 W/m/K
451.76 K, 4908 kPa | 0.04609 W/m/K
451.76 K, 4909 kPa | 0.04628 W/m/K
451.77 K, 3650 kPa | 0.0303 W/m/K
451.77 K, 5207 kPa | 0.0462 W/m/K
451.77 K, 5208 kPa | 0.04621 W/m/K
451.78 K, 2992 kPa | 0.02586 W/m/K
451.78 K, 3650 kPa | 0.03036 W/m/K
451.79 K, 2166 kPa | 0.02402 W/m/K
451.79 K, 2992 kPa | 0.02587 W/m/K
451.8 K, 2167 kPa | 0.02395 W/m/K
451.8 K, 4735 kPa | 0.0468 W/m/K
451.85 K, 3273 kPa | 0.02717 W/m/K and 0.02719 W/m/K
451.85 K, 3509 kPa | 0.02883 W/m/K
451.86 K, 1669 kPa | 0.0235 W/m/K
451.86 K, 1672 kPa | 0.02345 W/m/K
451.87 K, 2617 kPa | 0.02483 W/m/K
451.87 K, 2618 kPa | 0.02473 W/m/K
451.89 K, 4734 kPa | 0.0473 W/m/K
451.89 K, 4735 kPa | 0.04729 W/m/K
451.91 K, 2992 kPa | 0.02598 W/m/K
451.92 K, 2991 kPa | 0.02605 W/m/K
451.93 K, 5207 kPa | 0.04646 W/m/K
